Patent US20230382895A1, “CRYSTALLINE FORM III OF MELANOCORTIN RECEPTOR AGONIST COMPOUND AND PREPARATION METHOD THEREFOR” (LG CHEM, LTD., priority 2020, published 2023)
“Also recorded” adds a separate entry of the source. Structures can show the parent of a compound that is named as a salt.

Experiment: Stability assessment by HPLC after storage under accelerated (40° C., 75% RH, open) or harsh (80° C., sealed) condition
Format: physicochemical
Settings: for Stability (HPLC), Open AOC: open state, accelerated condition (40° C., 75% RH); for Stability (HPLC), Closed STR: sealed state, harsh condition, oven at 80° C.
Procedure: About 10-30 mg of the sample was stored for 4 weeks in an open state under the accelerated condition (40° C., 75% RH) or in a sealed state under the harsh condition in an oven at 80° C. [table]

With `CC(C)C(=O)N([C@H]1C[C@@H](C(=O)N2CCOCC2)N(C(=O)[C@@H]2CN(C(C)(C)C)C[C@H]2c2ccc(Cl)cc2)C1)[C@H]1CC[C@@H](C)CC1` [Example 1, Is7-((3S,5S)-1-((3S,4R)-1-(tert-butyl)-4-(4-chlorophenyl)pyrrolidine-3-carbonyl)-5-(morpholine-4-carbonyl)pyrrolidin-3-yl)-N-((is, 4R)-4-methylcyclohexyl) isobutyramide hydrochloride] the “Chemical stability for 4 weeks” value (4 weeks, accelerated condition (40° C., 75% RH) and harsh condition (80° C.), listed as crystalline form III, hydrochloride) was “showed chemical stability; also recorded: exhibited chemical stability”, the “Stability (HPLC), Initial” value (Initial, before storage, in % (unit assumed)) was 99.68 and the “Stability (HPLC), Open AOC” value (Week 2, in % (unit assumed)) was 89.27. The “Stability (HPLC), Closed STR” value (Week 2, in % (unit assumed)) was 99.11, the “Stability (HPLC), Open AOC” value (Week 4, in % (unit assumed)) was 99.26 and the “Stability (HPLC), Closed STR” value (Week 4, in % (unit assumed)) was 98.76.
